Literature values in article PMC9370779, “Traditional Medicinal Uses, Phytochemistry, Biological Properties, and Health Applications of Vitex sp” (Plants, 2022).
pIC50: −log10 of the molar value. “Also recorded” adds a separate entry of the source. Where two headings read alike, the source gives them in different places.

Experiments:
[1] = design: method as in doi:10.1016/j.phytol.2019.11.018
[2] = design: method as in PMID 29343985; conditions: mice, acetic acid abdomen constriction
[3] = design: method as in PMID 29343985; conditions: mice, carrageenan paw oedema
[4] = design: method as in PMID 27118321; conditions: ABTS stated for 131
[5] = design: method as in PMID 23150078; conditions: 100 mg/kg dose
[6] = tested on: African green monkey kidney (Vero) cell lines; design: method as in PMID 11842334
cyclooxygenase-1 (COX-1) = tested on: cyclooxygenase-1 (COX-1); design: method as in PMID 11842334
[7] = tested on: lipopolysaccharide-induced nitric oxide (NO) production; design: method as in doi:10.1002/hlca.201600022
[8] = tested on: human fetal lung fibroblast (MRC15) cells; design: method as in PMID 26034885
[9] = design: method as in PMID 26034885
[10] = tested on: human colorectal carcinoma (HCT-116) cells; design: method as in PMID 26034885
[11] = read-out: antioxidant effects, IC50 value
[12] = design: method as in PMID 10579867
[13] = tested on: LPS-induced NO production; design: method as in doi:10.1177/1934578X19848178; conditions: at lower doses/concentrations
[14] = tested on: lymphocytic leukemia (P388) cells; design: method as in PMID 9332026
NO production = tested on: NO production; design: method as in PMID 27535293; conditions: up to a concentration of 100 µM
[15] = tested on: nuclear factor-kappa B (NF-κB) pathway in human embryonic kidney (HEK 293) cells; design: method as in PMID 29996686; conditions: TNF-α-induced
[16] = tested on: hepatocyte-derived carcinoma (HuH-7) cells; design: method as in PMID 18595136
[17] = not given; remark: listed apart in the source
[18] = tested on: LPS-stimulated NO production

COC1CC2C(O)C=C(COC(=O)c3ccc(O)cc3)C2C(OC)O1 (centres unmarked) [Compound 23, ishindacin A]
percentage scavenging activities on stable free radicals [1]: 27.14%

COc1ccc2oc(CC(O)c3cccc(C(=O)O)c3)cc(=O)c2c1O (centres unmarked) [Compound 161]
antinociceptive action [2]: successful in reducing nociception and inflammation; also recorded: The derivatives from V. negundo L. were able to reduce inflammation, and nociception, and could be used as a potential source of antinociceptive and anti-inflammatory candidates | anti-inflammatory activity [3]: successful in reducing nociception and inflammation; also recorded: The derivatives from V. negundo L. were able to reduce inflammation, and nociception, and could be used as a potential source of antinociceptive and anti-inflammatory candidates

COc1cc(-c2c(O)c(C(=O)O)cc3cc(OC)c(O)cc23)ccc1O [Compound 131, vitexnegheteroin G]
antioxidant activity [4]: antioxidant activity; also recorded: Exhibited antioxidant activities using ABTS scavenging activities

CC1(C)CC[C@@H]([C@@](O)(CO)C2CC[C@@]3(O)C4=CC(=O)[C@@H]5C[C@@H](O)[C@@H](O)C[C@]5(C)C4CC[C@]23C)O1 (some centres unmarked) [Compound 111, 21-hydroxyshidasterone]
anti-inflammatory activity in rat paw oedema development assay [5]: showed anti-inflammatory activity; also recorded: Exhibited anti-inflammatory activity in rat paw oedema development assay at 100 mg/kg dose

COC(=O)c1cccc(CCc2cc(=O)c3c(O)c(OC)ccc3o2)c1 [Compound 160]
antinociceptive action [2]: successful in reducing nociception and inflammation; also recorded: The derivatives from V. negundo L. were able to reduce inflammation, and nociception, and could be used as a potential source of antinociceptive and anti-inflammatory candidates | anti-inflammatory activity [3]: successful in reducing nociception and inflammation; also recorded: The derivatives from V. negundo L. were able to reduce inflammation, and nociception, and could be used as a potential source of antinociceptive and anti-inflammatory candidates

CO[C@H]1CC2C(C=O)=C(C)CC2O1 (some centres unmarked) [Compound 6, Tarumal]
cytotoxicity against Vero cell lines [6]: no cytotoxicity | COX-1 inhibition (in words) (cyclooxygenase-1 (COX-1)): low inhibition

O=C(OCC1=CC(=O)C2C=CO[C@@H](O[C@@H]3O[C@H](CO)[C@@H](O)[C@H](O)[C@H]3O)C12)c1ccc(O)cc1 (some centres unmarked) [Compound 18, agnusoside]
anti-inflammatory activity, LPS-induced NO production [7]: moderate anti-inflammatory activity; also recorded: Exhibited moderate anti-inflammatory activity using NO production induced by lipopolysaccharide

C=C1CCC2C(C)(C)CCCC2(C)C1CC(O)C1=CC(=O)OC1 (centres unmarked) [Compound 74, vitexolide E]
cytotoxic activity against MRC15 cells [8]: cytotoxic activities; also recorded: cytotoxic activity | antibacterial activity [9]: moderate antibacterial | cytotoxic activity against HCT-116 cells [10]: cytotoxic activities; also recorded: cytotoxic activity

C=C1CC[C@@H]2C(C(=O)O)=CO[C@@H](O[C@@H]3O[C@H](COC(=O)c4ccc(O)cc4)[C@@H](O)[C@H](O)[C@H]3O)[C@H]12 [Compound 19, vitexnegheteroin K]
pIC50 [11]: < 4.70 | inhibitory effects on α-glucosidase (α-glucosidase): moderate inhibitory effects

CC(C(=O)O)c1ccc(-c2ccccc2)c(F)c1 (centres unmarked) [flurbiprofen]
symptoms of mastalgia (cyclic mastalgia, premenopausal women, V. agnus-castus fruit 40 mg): significant reduction | harmful effects (in vivo): no harmful effects

COC1CC2(CCC3(O2)C(C)CC(OC(C)=O)C2C(C)(C)CCCC23C)C(OC)O1 (centres unmarked) [Compound 32]
antioxidant activity [12]: did not exhibit any activities

C[C@@H]1CC[C@@H]2C(C(=O)O)=CO[C@@H](O[C@@H]3O[C@H](COC(=O)c4ccc(O)cc4)[C@@H](O)[C@H](O)[C@H]3O)[C@H]12 [Compound 20, vitexnegheteroin L]
pIC50 [11]: < 4.70 | inhibitory effects on α-glucosidase (α-glucosidase): moderate inhibitory effects

COc1ccc([C@H]2c3c(ccc(O)c3OC)C=C(C=O)[C@@H]2CO)cc1OC [Compound 138, 6-hydroxy-4-(3,4-dimethoxyphenyl)-3-hydroxymethyl-5-methoxy-3,4-dihydro-2-napthaldehyde]
inhibitory effects on NO generation [13]: minor effects of inhibitory

C=C(CC(=O)O)C(=O)C[C@H]1C(=C)CC[C@H]2C(C)(C)CCC[C@]12C [Compound 76, vitexolin B]
cytotoxic activity against MRC15 cells [8]: cytotoxic activities; also recorded: cytotoxic activity | antibacterial activity [9]: moderate antibacterial | cytotoxic activity against HCT-116 cells [10]: cytotoxic activities; also recorded: cytotoxic activity

COc1cc2c(cc1O)C(c1ccc(OC)c(OC)c1)C(CO)C(C=O)=C2 (centres unmarked) [Compound 137, 6-hydroxy-4-(3,4-dimethoxyphenyl)-3-hydroxymethyl-7-methoxy-3,4-dihydro-2-naphthaldehyde]
inhibitory effects on NO generation [13]: minor effects of inhibitory

COC1C(COC(=O)C=Cc2ccc(O)c(O)c2)OC(c2c(O)cc3oc(-c4ccc(O)c(O)c4)cc(=O)c3c2O)C(O)C1O (stereo not drawn) [Compound 115, luteolin 6-C-(4″-methyl-6″-O-trans-caffeoylglucoside)]
cytotoxicity against P388 cells, IC50 values [14]: 7.6 µg/mL

O=C(OCC1=C[C@@H](O)[C@@H]2C=CO[C@@H](O[C@@H]3O[C@H](COC(=O)c4ccc(O)cc4)[C@@H](O)[C@H](O)[C@H]3O)[C@H]12)c1ccc(O)cc1 [Compound 21, 10-p-hydroxybenzoyl-6β-hydroxyiridoid 1-O-β-D-(6′-O-p-hydroxybenzoyl)glucopyranoside]
inhibition of NO production (NO production): did not inhibit; also recorded: No inhibitory activity on NO production

CC1(C)CC[C@@H]([C@@H](CO)C2CC[C@@]3(O)C4=CC(=O)[C@@H]5C[C@@H](O)[C@@H](O)C[C@]5(C)C4CC[C@]23C)O1 (stereo partly drawn) [Compound 112, 11β-hydroxy-20-deoxyshidasterone]
anti-inflammatory activity in rat paw oedema development assay [5]: showed anti-inflammatory activity; also recorded: Exhibited anti-inflammatory activity in rat paw oedema development assay at 100 mg/kg dose

COc1cc(C(=O)OC2C[C@@H](O)[C@@H]3C=CO[C@@H](C[C@@H]4O[C@H](CO)[C@@H](O)[C@H](O)[C@H]4O)[C@H]23)ccc1O (some centres unmarked) [Compound 7, pedunculariside]
IC50 value, inhibition of COX-2 (cyclooxygenase-2 (COX-2)): 150 ± 210 µg/mL | inhibition of COX-2 (in words) (cyclooxygenase-2 (COX-2)): preferential inhibition of COX-2 | cytotoxicity against Vero cell lines [6]: no cytotoxicity | COX-1 inhibition (in words) (cyclooxygenase-1 (COX-1)): low | COX-1 inhibition (in words) (cyclooxygenase-1 (COX-1); listed as pedunculariside): little inhibitory effect

CC(=O)OC1CC(C)C(O)(CCC2=CC(=O)OC2)C2(C)CCCC(C)(C)C12 (centres unmarked) [Compound 95, vitexilactone D]
inhibition rates of NF-κB activation [15]: 57.30 ± 15.70

O=C(C=Cc1ccc(O)c(O)c1)OCC1OC(c2c(O)cc3oc(-c4ccc(O)c(O)c4)cc(=O)c3c2O)C(O)C(O)C1O (stereo not drawn) [Compound 116, luteolin 6-C-(6″-O-trans-caffeoylglucoside)]
cytotoxicity against P388 cells, IC50 values [14]: 14 µg/mL

O=C(C=Cc1ccc(O)c(O)c1)OC1C(c2c(O)cc3oc(-c4ccc(O)c(O)c4)cc(=O)c3c2O)OC(CO)C(O)C1O (stereo not drawn) [Compound 117, luteolin 6-C-(2″-O-trans-caffeoylglucoside)]
cytotoxicity against P388 cells, IC50 values [14]: 56 µg/mL

CO[C@H]1C[C@@H]2[C@@H](C(COC(=O)c3ccc(O)cc3)=C[C@H]2O)[C@H](OC)O1 [Compound 24, isonishindacin A]
percentage scavenging activities on stable free radicals [1]: 25.80%

C[C@]1(O)CC[C@@H]2C(C(=O)O)=CO[C@@H](O[C@@H]3O[C@H](CO)[C@@H](O)[C@H](O)[C@H]3OC(=O)c3ccc(O)cc3)[C@@H]21 [Compound 1, 2-p-hydroxybenzoyl mussaenosidic acid]
protective effects against CCl4-induced toxicity in HuH-7 cells and oxidative stress [16]: Showed protective effects against CCl4-induced toxicity in HuH-7 cells and oxidative stress

CCOC1C=C(CCC2(O)C(C)CC(OC(C)=O)C3C(C)(C)CCCC32C)C(=O)O1 (centres unmarked) [Compound 94, viterotulin C]
inhibition rates of NF-κB activation [15]: 66.09 ± 11.49

C=C1CCC2C(C)(C)CCCC2(C)C1CC(O)C1=CC(=O)OC1O (centres unmarked) [Compound 71, 12-epivitexolide A]
cytotoxic activity against MRC15 cells [8]: cytotoxic activities; also recorded: cytotoxic activity | antibacterial activity [9]: moderate antibacterial | cytotoxic activity against HCT-116 cells [10]: cytotoxic activities; also recorded: cytotoxic activity

CO[C@H]1O[C@H](COC(=O)c2ccc(O)cc2)[C@@H](O)[C@H](O)[C@H]1O [Compound 155, methyl (6-O-4-hydroxybenzoyl)-α-D-glucopyranoside]
antioxidant activity via ABTS radical scavenging assay [17]: Exhibited antioxidant and NO inhibitory activities. | inhibitory activity on LPS-stimulated NO production [18]: Exhibited antioxidant and NO inhibitory activities.
